According to patent US8362203B2, “Non-natural peptides as models for the development of antibiotics” (priority 2009, dated 2013):

Tests used:
[1] = system: E. coli helix 31 hairpin RNA (ECh31WT); assay: Fluorescence titration of 5′-fluorescein-labeled helix 31 RNA with peptide; assay type: binding; conditions: 0.5 μM h31, 10 mM HEPES, 50 mM NaCl, 1 mM Na2EDTA, pH 7.5, 25° C.; hyperbolic curve fitting; read-out: apparent KD (fluorescence)
Procedure: Fluorescence methods. Fluorescence measurements were taken on a RF-5301PC spectrofluorometer (Shimadzu) at 25° C. using a 1 cm path-length quartz fluorometer cell. The emission spectra were acquired by scanning between 500 and 600 nm with an excitation wavelength of 494 nm, slit widths of 3 nm for excitation and emission. The fluorescent titrations were performed by adding increasing concentrations of peptide (5-150 μM) to 350 μl of 0.5 μM 5′-fluorescein-labeled helix 31 RNA in HEPES buffer (10 mM HEPES, 50 mM NaCl, 1 mM Na2EDTA at pH 7.5) and incubated for 2 min for each concentration point followed by spectrum scanning. […] RNA-peptide binding was determined by quenching of the fluorescence intensity upon addition of peptide to the sample. The fluorescence intensity at 523 nm was converted to a fraction bound ratio and the dissociation constant (KD) of RNA-peptide binding was determined by curve fitting using the Kaleidagraph™ 3.0 program, as described in Chapter 3, Section 3.5.3
Fluorescence titration assay. […] In this experiment, the fluorescence intensity decreased upon increases in the peptide concentration (FIG. 54); however, the percent change in the observed fluorescence intensity was fairly small (7%). […]
The relatively poor fits may be a result of the fact that the fluorescence changes are quite small leading to greater error. […]

[2] = system: E. coli helix 31 hairpin RNA (ECh31WT); assay: Circular dichroism titration of helix 31 RNA with peptide; assay type: binding; conditions: 0.5 μM h31, 100 mM NaCl, 10 mM sodium phosphate, 0.1 mM Na2EDTA, pH 7; CD at 270 nm; read-out: apparent KD (circular dichroism)
Procedure: Binding studies with CD. The titration was performed by adding increasing concentrations of peptide (10-80 μM) to 1 mL of 0.5 μM ECh31WT RNA in 10 mM sodium phoshate, 100 mM NaCl, 0.1 mM Na2EDTA at pH 7, and incubated for 2 min for each concentration point followed by spectrum scanning. Prior to titration, the RNA was renatured as described in Chapter 3, Section 3.2.2. RNA-peptide binding was determined by observing CD changes at 270 nm upon addition of peptide to the sample. The CD at 270 nm was converted to a fraction bound ratio and the dissociation constant (KD) of RNA-peptide binding was determined by curve fitting using the Kaleidagraph™ 3.0 program, as described in Chapter 3, Section 3.2.4.
Circular dichroism studies. CD was employed to assess the conformational changes in helix 31 upon binding of the peptide. […] Conformational changes in helix 31 measured by circular dichroism spectroscopy was performed in 100 mM NaCl, 10 mM sodium phosphate, and 0.1 mM Na2EDTA at pH 7. […] The dissociation constant (KD) of RNA-peptide binding was determined by plotting Fr versus peptide concentration, and by curve fitting to Equation, Fr=[P]^n/([P]^n+KD^n) where [P] is the peptide concentration, n is the Hill coefficient, and KD is the apparent dissociation constant (FIG. 56B). […]

[3] = system: E. coli h31 RNA (ECh31WT); assay: SPR kinetic analysis of binding to immobilized biotinylated helix 31 RNA
Procedure: SPR methods. All immobilization and subsequent binding studies were performed using a BIAcore 2000 instrument set at a temperature of 25° C. Standard dextran surface BIAcore sensorchips (Sensor chip CM5) were purchased from BIAcore. Standard desorb and sanitize routines were performed according to the BIAcore guidelines before docking a new CM5 sensor chip. All buffers were filtered through sterile 0.2 μm nylon membranes (Millipore™) under vacuum. Before derivatizing the flow cells with streptavidin, the CM5 sensor chip was pre-conditioned using three successive 10 μl injections of chip-preparation solution (10 mM NaOH, 500 mM NaCl) at 100 μl/min, followed by a normalization routine using BIAnormalizing solution (40% glycerol). Streptavidin derivatization was performed as described in Chapter 3. Prior to immobilization, the solution of biotinylated RNA in HBS-EP buffer (10 mM HEPES, 3 mM EDTA, 150 mM NaCl, 0.005% P20 at pH 7.4) was renatured by heating to 90° C. for 2 min followed by placing on ice. Flow cells were functionalized by injecting 30 μl of RNA at a time using the MANUAL INJECT command at a flow rate of 10 μl/min, until the desired immobilization level is reached. One of the flow cells was used to immobilize RNA (typically FC4), while another one adjacent to it (FC3) remained unmodified to serve as a blank-control for matrix effects. Levels of RNA captured were calculated by subtracting […] for each flow cell. After RNA immobilization, FC3 and FC4 were blocked with 100 μL of 1 mg/mL biotin at 5 μL/min.
Peptide samples were prepared by serial dilutions from stock solutions into micro-centrifuge tubes. Dilutions are made by the same running buffer to avoid buffer mismatches. […]
Biotinylated helix 31 RNA was immobilized onto a streptavidin-coated CM5 chip and differing concentrations of 17 (TYLPWPA)-GFP (“TYLPWPA” disclosed as SEQ ID NO: 2) were injected as the analyte. […] Finally, the apparent dissociation constants were determined under optimized conditions. […]

Q: Which Kd [1] does the source give for “TYLPWPA [peptide 17, 7-mer peptide selected by phage display against helix 31 RNA]” here?
A: Its Kd is 27 ± 4 µM.

Q: And the Kd [2]?
A: Its Kd is 28 ± 10 µM.

Q: What about the “affinity for helix 31 RNA (in words)” value [3] of the same substance?
A: Its value is “moderate affinity”.

Q: And the “KD (SPR, kd/ka)” value ([3]; Langmuir 1:1 model, same running buffer, pH 7.5, 50 μL/min)?
A: The value was 28 ± 1 µM.

Q: And the “SPR response due to binding, free peptide as analyte” value ([3]; peptide without GFP)?
A: Its value is “negligible responses”.
